From patent publication US9439942B2, “Peptides and use thereof in the treatment of large cell lung cancer” (Biokine Therapeutics Ltd., priority 2012, dated 2016)
“Also recorded” adds a separate entry of the source. Like-named read-outs stand apart in the source and are kept apart here. Non-standard residues stand in square brackets, D forms with d. *: point of attachment. Benzoyl(4-F) = O=C(c1ccc(F)cc1)*; Cit = NC(=O)NCCC[C@H](N)C(=O)O

How the values were obtained:
[1] = tested on: A549 cells (Adenocarcinoma); settings: for A549 tumor cell proliferation, agent alone: 0.1 μg/ml, did not completely inhibit proliferation
Description: To measure cell proliferation, 4000 cells were seeded into 96-well cell culture plates with 200 μl RPMI 1640 medium supplemented with 10% FCS under the following conditions: 37° C., and 5% CO2. Twenty-four hours later, the medium was to changed to RPMI 1640 supplemented with 1% FCS. 20 μg\ml, 50 μg/ml or 100 μg\ml BKT140, with or without Cisplatin 0.1 μg/ml or paclitaxel 0.1 μg/ml to 1 μg/ml μg/ml were added to the medium. For radiation experiments, prior to plating of cells, the cells were irradiated at the following doses 500 to 2000 Rad. Cultured cells were fixed with 2.5% Gluteraldehyde at the indicated time points and stained with 1% Methylene Blue. Color extraction was done using 0.1 N HCl. Absorbance of the solution in each well at 570 nm was read with micro-plate reader (Anthos Htll). 6 wells were determined for each time point.

[2] = tested on: H460 cells (large cell carcinoma); test: Proliferation / survival assay and Giemsa stain, H460; assay type: cell-based, human; settings: for H460 tumor cell proliferation, agent alone: 0.1 μg/ml, did not completely inhibit proliferation
Description: (§1) Color extraction was done using 0.1 N HCl. […] 6 wells were determined for each time point.

[3] = tested on: A549 cells (Adenocarcinoma); test: Colony assay (agar), A549; assay type: cell-based, human
Description: (§2) The H460 (large cell carcinoma), A549 (Adenocarcinoma), H358 (Bronchoalveolar carcinoma), H1299 (large cell carcinoma)—cell lines were all purchased from ATCC and were maintained in RPMI (Gibco Laboratories, Grand Island, N.Y.) containing 10% fetal calf serum (FCS), 1 mM L-glutamine, 100 U/ml penicillin, and 0.01 mg/ml streptomycin (Biological Industries, Kibbutz Beth Haemek, Israel). L-4 (a primary NSCLC cell line) was generated from large cell carcinoma as previously described (Wald et al, J Thorac Cardiovasc Surg. 2011 June; 141(6): 1503-12).
(§3) Agar base layer was prepared as follows: 45 ml of RPMI+12% FCS was mixed with 15 ml of RPMI X2+12% FCS and with 15 ml of 2.5% agar in double distilled water. Tumor cells were suspended in RPMI+10% FCS. Cell suspension was mixed in a ratio of 1:3 with the agar base solution. This mixture was then plated on top of a preformed solid agar base. […] Fourteen days later, the number of colonies was counted in ten different fields.
(§4) Data was expressed as mean ±standard error (SE) and as absolute values. Continuous data with normal distribution were analyzed using T-test. Categorical data were analyzed using Mann-Whitney U test. A p value of 0.05 was considered significant. * P<0.05, ** P<0.01. Statistical analyses were performed using (SPSS software, (IBM).

[4] = tested on: NSCLC cell lines (H358, A549, H460, H1299 and L4); test: Colony assay (agar), NSCLC cell lines; assay type: cell-based, human
Description: as §2, §3, §4

[5] = tested on: bone marrow derived cells; settings: cited from earlier work
[6] = molecular target: T1, human CXCR4 (Homo sapiens, UniProt P61073); test: Immunohistochemistry for CXCR4 in H460 derived tumors after S.C. BKT140; assay type: in vivo; settings: BKT140 S.C. at a site distant from the tumor, 6 hours prior to sacrification
T1 construct: Tissue sections from H460 derived tumors were tested for CXCR4 expression; endogenous in cells; host or cells: H460 NSCLC cells grown as subcutaneous xenografts in Nude mice
Description: (§5) 1*10^6 H460 cells mixed in 100 μl RPMI 1640 and 100 μl matrigel (BD Bioscience) were injected subcutaneously (S.C.) into the right flank of Nude mice. Tumor growth was followed for 19 days. 1*10^6 A549 cells mixed in 100 μl RPMI 1640 and 100 μl matrigel (BD Bioscience) were injected S.C. into the right flank of Nude mice. Tumor growth was followed for 35 days. Systemic BKT140 administration was performed as follows: BKT140 (400 μg/mice dissolved in PBS) was administered once daily 6/7 days a week, by S.C. injection into the left flank at a point distant at least 1.5 cm from the right sided tumor. Tumors size was calculated by measurement of tumor length and width using the following formula: 4/3*π*(length/2)*(width/2)^2.
Tissue sections of tumor-bearing Nude mice were routinely fixed with formalin and embedded in paraffin. Antigen retrieval was performed, and sections were stained with either mAb 44708 (R&D Systems, Minneapolis, MN) or 12G5 (R&D Systems) for human CXCR4 (1:100) using a standard indirect avidin-biotin HRP method according to the manufacturer's instructions. 3-Amino-9-ethylcarbazole was used for color development and sections were counterstained with hematoxylin. As negative controls, sections were stained either with no primary Ab (PBS) or with an isotype-matched control Ab.

[7] = tested on: NSCLC cell lines (H358, A549, H460, H1299 and L4); test: Proliferation and survival assays, NSCLC cell lines; assay type: cell-based, human; settings: 20 or 100 μg/ml BKT140, dose dependant
Description: as §1

[8] = tested on: H358 cells (Bronchoalveolar carcinoma); test: Colony assay (agar), H358; assay type: cell-based, human; settings: 100 μg\ml BKT140 with CXCL12
Description: as §2, §3, §4

[9] = tested on: H1299 cells (large cell carcinoma); test: Colony assay (agar), H1299; assay type: cell-based, human; settings: 100 μg\ml BKT140 with CXCL12
Description: as §2, §3, §4

[10] = tested on: H460 derived tumors; test: H460 derived xenograft growth in Nude mice; assay type: in vivo; settings: BKT140 400 μg/mice S.C. once daily 6/7 days a week
Description: as §5

[11] = tested on: A549 derived tumors; test: A549 derived xenograft growth in Nude mice; assay type: in vivo; settings: BKT140 400 μg/mice S.C. once daily 6/7 days a week
Description: as §5

[12] = tested on: H460 cells (large cell carcinoma); test: Colony assay (agar), H460; assay type: cell-based, human
Description: as §2, §3, §4

[13] = increasing BKT140 with irradiation 500 Rad, cisplatin 0.1 μg/ml or paclitaxel 0.1 μg/ml (paclitaxel data not shown)

T1 sequence (P61073 whole entry): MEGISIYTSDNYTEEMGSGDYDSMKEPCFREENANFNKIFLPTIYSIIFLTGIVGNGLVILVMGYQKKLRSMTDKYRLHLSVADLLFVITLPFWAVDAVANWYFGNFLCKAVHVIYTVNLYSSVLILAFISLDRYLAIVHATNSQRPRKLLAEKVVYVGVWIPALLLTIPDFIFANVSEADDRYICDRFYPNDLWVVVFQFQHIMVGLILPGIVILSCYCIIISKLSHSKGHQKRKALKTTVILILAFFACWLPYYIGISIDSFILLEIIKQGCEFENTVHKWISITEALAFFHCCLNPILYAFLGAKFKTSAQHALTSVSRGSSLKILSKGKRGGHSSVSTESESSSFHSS

CC(=O)O[C@H]1C(=O)[C@@]2(C)[C@H]([C@H](OC(=O)c3ccccc3)[C@]3(O)C[C@H](OC(=O)[C@H](O)[C@@H](NC(=O)c4ccccc4)c4ccccc4)C(C)=C1C3(C)C)[C@]1(OC(C)=O)CO[C@@H]1C[C@@H]2O [paclitaxel, reference compound]
A549 tumor cell proliferation, agent alone [1]: moderate anti-proliferative effect
H460 tumor cell proliferation, agent alone [2]: moderate anti-proliferative effect

4F-benzoyl-Arg-Arg-Nal-Cys-Tyr-Cit-Lys-DLys-Pro-Tyr-Arg-Cit-Cys-Arg-NH2 ({Benzoyl(4-F)}-RR[Nal]CY[Cit]K[dK]PYR[Cit]CR-NH2; cysteine pairing not given here) [BKT140]
inhibitory effect on colony formation (compared between cell lines) ([3]; 100 μg\ml BKT140 with CXCL12): least evident
colony formation ([4]; single dose of 100 μg\ml BKT140 on day one, over entire range of CXCL12 concentrations): reduced colony formation
time of return of mobilization to base line ([5]; post BKT140 injection): 24 h
time of peak mobilization of bone marrow derived cells ([5]; post S.C. injection): four to eight
A549 tumor cell proliferation ([1]; BKT140 20 μg/ml): did not affect
A549 tumor cell proliferation ([1]; BKT140 100 μg/ml): significantly reduced
A549 proliferation, combination effect [1, 13]: additive anti proliferative effects
CXCR4 staining of tumor tissue (binding to tumor expressed CXCR4) [6]: completely blocked CXCR4 staining
NSCLC proliferation (cytostatic / cytotoxic effect) [7]: inhibited; also recorded: both cytostatic and cytotoxic effects
tumor cell survival [7]: reduced tumor cell survival
inhibitory effect on colony formation (compared between cell lines) [8]: least evident
inhibitory effect on colony formation (compared between cell lines) [9]: most evident
volume / development of H460 derived tumors ([10]; 19 days): significantly reduced; also recorded: significantly delayed
decrease of median tumor volume ([10]; H460): ~50%
H460 tumor cell proliferation ([2]; BKT140 20 μg/ml): completely arrest
H460 cytotoxic effect ([2]; BKT140 100 μg/ml): tumor cell death
H460 proliferation, combination effect [2, 13]: additive anti proliferative effects
volume / development of A549 derived tumors ([11]; 35 days): much reduced effect
decrease of median tumor volume ([11]; A549): ~50%
inhibitory effect on colony formation (compared between cell lines) ([12]; 100 μg\ml BKT140 with CXCL12): most evident

CXCL12: The chemokine CXCL12 (stromal-derived factor-1 or SDF-1), the only natural ligand of CXCR4
fold increase in colony number ([3]; similar CXCL12 concentrations (250 ng/ml)): 1.4 fold
colony formation ([4]; CXCL12 25-250 ng/ml, colonies counted after fourteen days): dose dependant increase in colony formation
fold increase in colony number ([12]; 250 ng/ml CXCL12): 2.5 fold

N.N.[Cl][Pt][Cl] [cisplatin, reference compound]
A549 tumor cell proliferation, agent alone [1]: moderate anti-proliferative effect
H460 tumor cell proliferation, agent alone [2]: moderate anti-proliferative effect
